Structures can show the parent of a compound that is named as a salt.
tested on: SARS-CoV-2; experiment: microbe, parasite or virus in culture; settings: Severe acute respiratory syndrome coronavirus 2, Caco-2, 48 h

| Molecule | IC50 |
| --- | --- |
| Nc1ccc2cc3ccc(N)cc3nc2c1 [PROFLAVINE HEMISULFATE] | 26.7 µM |
| O[C@@H](COc1cccc2ncccc12)CN1CCN([C@@H]2c3ccccc3[C@@H]3[C@H](c4ccccc42)C3(F)F)CC1 [LY335979 (Zosuquidar trihydrochloride), Zosuquidar trihydrochloride] | 26.8 µM |

same assay, conditions: Severe acute respiratory syndrome coronavirus 2, Caco-2, 48 h, read-out: % Inh. (% Inhibition of SARS-CoV-2)

| Molecule | inhibition at 10 µM |
| --- | --- |
| c1ccc(-c2ccc(C(c3ccccc3)n3ccnc3)cc2)cc1 (stereo not shown) [BIFONAZOLE] | 70.8% |
| Nc1ccccc1C(=O)O [anthranilic-acid] | 50% |
| NC(=O)NS(=O)(=O)c1ccc(N)cc1 [SULFACARBAMIDE] | 58.1% |
| C[C@]12CC[C@H](O)C[C@H]1CC[C@@H]1[C@@H]2CC[C@]2(C)[C@@H](C3=CC(=O)OC3)CC[C@]12O [digitoxigenin] | 60% |
| O=C(NO)c1cnc(N2CCN(S(=O)(=O)c3ccc4ccccc4c3)CC2)nc1 [R306465] | 57.3% |
| OC1(c2ccc(Cl)c(C(F)(F)F)c2)CCN(CCCC(c2ccc(F)cc2)c2ccc(F)cc2)CC1 [PENFLURIDOL] | 85.9% |
| CCN(CC)CCNc1ccc(CO)c2sc3ccccc3c(=O)c12 [Hycanthone] | 60.2% |
| Cn1c(=O)n(-c2ccc(C(C)(C)C#N)cc2)c2c3cc(-c4cnc5ccccc5c4)ccc3ncc21 [Dactolisib (BEZ235, NVP-BEZ235), Dactolisib] | 91.8% |
| Cc1nc(Nc2ccc(F)cc2)nc(N2CCc3ccccc3C2C)c1C (stereo not shown) [Revaprazan Hydrochloride] | 90.9% |
| CC(C)(O)CC(=O)NCCn1ccc2ncnc(Nc3ccc(Oc4cccc(C(F)(F)F)c4)c(Cl)c3)c21 [TAK-285] | 73% |
| Nc1ccc2cc3ccc(N)cc3nc2c1 [PROFLAVINE HEMISULFATE] | 95.8% |
| NC(=O)N1C(=O)/C(=C(\O)c2cccs2)c2cc(Cl)ccc21 [tenidap] | 75.2% |
| Nc1nc(Cl)nc2c1ncn2[C@@H]1O[C@H](CO)[C@@H](O)[C@H]1O [2-chloroadenosine] | 72.5% |
| O[C@@H](COc1cccc2ncccc12)CN1CCN([C@@H]2c3ccccc3[C@@H]3[C@H](c4ccccc42)C3(F)F)CC1 [LY335979 (Zosuquidar trihydrochloride), Zosuquidar trihydrochloride] | 93% |
| Cc1nc2ccccn2c(=O)c1CCN1CCC(C(=O)c2ccc(F)cc2)CC1 [pirenperone] | 64.1% |
| CC(=O)Nc1cccc(-n2c(=O)n(C3CC3)c(=O)c3c(Nc4ccc(I)cc4F)n(C)c(=O)c(C)c32)c1 [Trametinib] | 76.6% |
| c1ccc(C(O[C@@H]2CCCN(CCc3ccc4c(c3)OCO4)C2)c2ccccc2)cc1 [zamifenacin] | 58.3% |
| CNC(=O)c1cc(Oc2ccc(NC(=O)Nc3cc(C(C)(C)C)nn3-c3ccc4ncccc4c3)c(F)c2)ccn1 [DCC-2036 (Rebastinib), Rebastinib] | 70% |
| O=C(Nc1ccc(OC(F)(F)F)cc1)c1sccc1NCc1ccnc2ccccc12 [OSI-930] | 100% |
| CCOC(=O)C1=C(C)NC(C)=C(C(=O)OC)C1c1cccc(Cl)c1Cl (stereo not shown) [FELODIPINE] | 51.2% |
| FC(F)(F)c1ccc(/C=C/c2nc(COc3ccc(CCCCn4ccnn4)cc3)co2)cc1 [mubritinib] | 82.2% |
| CCc1cc2cc(OC)c(OC)cc2c(Cc2ccccc2)n1 [Moxaverine] | 68.7% |

same assay, conditions: Severe acute respiratory syndrome coronavirus 2, Caco-2, 48 h, read-out: pIC50 (converted)

| Molecule | IC50 |
| --- | --- |
| Nc1ccc2cc3ccc(N)cc3nc2c1 [PROFLAVINE HEMISULFATE] | 26.9 µM |
| O[C@@H](COc1cccc2ncccc12)CN1CCN([C@@H]2c3ccccc3[C@@H]3[C@H](c4ccccc42)C3(F)F)CC1 [LY335979 (Zosuquidar trihydrochloride), Zosuquidar trihydrochloride] | 26.9 µM |

tested on: SARS-CoV-2; experiment: not given; settings: 10 µM

| Molecule | % Inh. (% Inhibition of SARS-CoV-2) |
| --- | --- |
| GSK9027 | 64.1% |
| CC(C)(C)c1ccc(-c2nc3c(N4CCN(Cc5ccc6nccnc6c5)CC4)cccc3[nH]2)cc1 [WAY-207024] | 77.1% |
| Cc1cc(N2CCOCC2)ccc1Nc1nc(NC2CCCCC2)c2[nH]cnc2n1 [MPI-0479605] | 61.2% |
| CCCCCCc1ccc(O)cc1O.Nc1c2ccccc2nc2ccccc12 [ACRISORCIN] | 61.7% |
| CN(C)CCNc1nc2cc(O)ccc2c2c1C(=O)c1ccccc1-2.Cl.Cl [TAS-103 (dihydrochloride)] | 92.6% |
| Lasofoxifene (Tartrate) | 54.3% |
| CC(C)(Cc1ccc2ccccc2c1)NC[C@@H](O)COc1cccc(Cl)c1C#N [NPS-2143 (SB262470)] | 67.3% |
| CN(C)C(=O)C(=O)c1cn(C)c2cc(Cl)c(C(=O)N3CCC(Cc4ccc(F)cc4)CC3)cc12 [SX-011] | 94.1% |
| O=S(=O)(c1cccc2c(Cl)cccc12)N1CCCNCC1 [ML-9] | 91.9% |
| CNC(=O)Nc1ccc(-c2nc(N3CC4CCC(C3)O4)c3cnn(C4CCC5(CC4)OCCO5)c3n2)cc1 [WYE-125132] | 99.7% |
| COc1ccc(NC(=O)c2ccc(-c3ccc(-c4noc(C)n4)cc3C)cc2)cc1OCCN(C)C [SB-216641] | 57.6% |
| CCc1ccccc1OC[C@@H](O)CN[C@H]1CCCc2ccccc21 [SR-59230A] | 57.3% |
| CC(C)(Cc1c[nH]c2ccc(Cl)cc12)NCCOc1ccccc1OCC1CC1 [RS-17053] | 103.3% |
| C=CC(=O)Nc1ccc2ncnc(Nc3cccc(Br)c3)c2c1 [PD168393] | 51.5% |
| O=S(=O)(NCCCCCCc1ccccc1)c1cccc2c(Cl)cccc12 [SC-9] | 83.4% |
| Cl.c1ccc2c(-c3cnn4cc(-c5ccc(N6CCNCC6)cc5)cnc34)ccnc2c1 [LDN193189 (Hydrochloride)] | 74.3% |
| O=C(NC1CCN(Cc2ccccc2)CC1)c1ccc(I)cc1 [4-IBP] | 89.9% |
| COc1cc(N2CCC(N)CC2)ccc1Nc1ncc(Cl)c(-c2c[nH]c3ccccc23)n1 [AZD3463] | 96.5% |
| O=C1Nc2ccc(Cl)c3c2C1(CCCCN1CC=C(c2ccc(Cl)cc2)CC1)CCC3 (stereo not shown) [DR-4485] | 82.8% |
| CC(C)c1ccc2c(c1)CC[C@H]1[C@](C)(CN)CCC[C@]21C [lylamine] | 76.4% |
| CC(=O)O[C@H]1C[C@H](O[C@H]2[C@@H](O)C[C@H](O[C@H]3[C@@H](O)C[C@H](O[C@H]4CC[C@@]5(C)[C@H](CC[C@@H]6[C@@H]5C[C@@H](O)[C@]5(C)[C@@H](C7=CC(=O)OC7)CC[C@]65O)C4)O[C@@H]3C)O[C@@H]2C)O[C@H](C)[C@H]1O[C@@H]1O[C@H](CO)[C@@H](O)[C@H](O)[C@H]1O [LANATOSIDE C] | 63.7% |
| COc1cc(Br)c(Nc2nc(-c3c(C)nc4ncccn34)cs2)c(Br)c1 [PTC-209] | 103.6% |
| CC(C)(O)c1ccn2c(-c3ccc(F)c(-c4ccc(F)cc4C#N)c3)cnc2c1F [TP-003] | 100.8% |
| CC(C)CNc1ccnc(NCc2csc(-c3ccccc3)n2)n1 [KHS-101] | 91.2% |
| O=C(O)[C@]1(Cc2cccc(Nc3nccs3)n2)CC[C@@H](Oc2cccc(Cl)c2F)CC1 [MK-5108 (VX-689)] | 77.9% |

| Molecule | % Inh. (% Inhibition of SARS-CoV-2) |
| --- | --- |
| Cc1ccccc1C(=O)c1ccc(Nc2ccc(Br)cc2N)cc1Cl [EO-1428] | 66.1% |
| O=C1OC2(c3cc(I)c(O)c(I)c3Oc3c2cc(I)c(O)c3I)c2c(Cl)c(Cl)c(Cl)c(Cl)c21 [rose-bengal-lactone] | 57.6% |
| COc1c(C)cnc(Cn2cc(C#CCC(C)(C)O)c3c(Cl)nc(N)nc32)c1C [EC-144] | 95.0% |
| FC(F)(F)c1ccc(CNc2ccc(Cc3c[nH]c4ncccc34)cn2)cc1 [PLX-647] | 95.7% |
| COc1cccc(-c2cc(F)ccc2[C@H]2Cc3nc(N)nc(C)c3C(=O)N2)n1 [NVP-HSP990] | 100.4% |
| Afatinib (dimaleate) | 60.2% |
| CCCCCC(O)c1cccc(OCc2ccc3ccccc3n2)c1 [REV-5901/L-655,238] | 113.5% |
| COc1cc(SC)ccc1C(=O)N1CCC(Cc2ccccc2)CC1 [JX-401] | 71.2% |
| N[C@H]1CCN(O)C1=O [HA-966-(S)-(−)] | 52.3% |
| COc1cc(Br)c(S(=O)(=O)Nc2ccc(Cl)c(O[C@@H]3CCN(C)C3)c2)cc1OC [SB-657510] | 101.1% |
| Fc1ccc(Cl)cc1-c1nc(Nc2ccncc2)c2nccnc2n1 [SD-208] | 55.1% |
| COc1ccc(-c2ccc3c(N4CCOC[C@@H]4C)nc(N4CCOC[C@@H]4C)nc3n2)cc1CO [AZD8055] | 105.2% |
| COc1ccccc1C1(O)CCN(CCCn2c3ccccc3c3ccccc32)CC1 [NNC-05-2090] | 71.8% |
| O=C(Nc1ccccc1)N1CCN(c2nc(-c3ccccc3)ns2)CC1 [JNJ 1661010] | 93.8% |
| Skepinone-L | 86.1% |
| verteporfin | 139.9% |
| COCc1c(-c2ccc(NC(=O)Nc3cc(C(F)(F)F)ccc3F)c(F)c2)c2c(N)ncnn2c1CN1CCOCC1 [ACTB-1003] | 97.7% |
| CN1c2cc3c(cc2N=C(c2ccc(C(=O)O)cc2)c2ccccc21)C(C)(C)CCC3(C)C [LE-135] | 105.5% |
| C=C[C@@]1(C)CC(=O)[C@]2(O)[C@@]3(C)[C@@H](O)CCC(C)(C)[C@@H]3[C@H](OC(=O)CCN(C)C)[C@H](OC(C)=O)[C@@]2(C)O1 [colforsin-daproate] | 80.3% |
| Cc1c(Cn2c(C)nc3c(C(=O)O)cc(N4CCOCC4)cc32)cccc1C(F)(F)F [GSK2636771] | 88.1% |
| O=C1NC(=O)/C(=C/c2ccc3nccc(-c4ccncc4)c3c2)S1 [GSK1059615] | 92.4% |
| CC[N+](C)(CC)CCC[n+]1c(-c2ccccc2)c2cc(N)ccc2c2ccc(N)cc21.[I-].[I-] [propidium-iodide] | 69.7% |
| c1ccc2sc(SN3CCOCC3)nc2c1 [N-oxydiethylenebenzothiazole-2-sulfenamide] | 64.6% |
| CCN(CC)CC1CCN(c2ncc3ncnc(Nc4ccc(F)c(Cl)c4)c3n2)CC1.Cl.Cl [BIBU-1361] | 78.5% |
| FC(F)(F)c1cc(CO[C@H]2CCCN[C@H]2c2ccccc2)cc(C(F)(F)F)c1 [L-733060] | 53.9% |
